Consider eight compounds from patent publication US10221426B2, “Constitutively active PYR/PYL receptor proteins for improving plant stress tolerance” (The Regents of the University of California, priority 2009, dated 2019).

The target in one test is T1, PYR1-HAB1 (Arabidopsis thaliana, UniProt O49686).
T1 construct: the Pyr1 open reading frame was PCR amplified from genomic DNA; expressed in transfected cells; host or cells: yeast strain Y190
T1 sequence (O49686 1-191): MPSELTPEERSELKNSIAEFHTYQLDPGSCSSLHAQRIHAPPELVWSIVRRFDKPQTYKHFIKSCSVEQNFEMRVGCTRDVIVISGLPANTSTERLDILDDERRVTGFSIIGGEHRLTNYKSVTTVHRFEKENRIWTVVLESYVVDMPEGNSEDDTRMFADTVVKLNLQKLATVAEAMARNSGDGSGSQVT
T1 sequence (Q9CAJ0 23-511 partner): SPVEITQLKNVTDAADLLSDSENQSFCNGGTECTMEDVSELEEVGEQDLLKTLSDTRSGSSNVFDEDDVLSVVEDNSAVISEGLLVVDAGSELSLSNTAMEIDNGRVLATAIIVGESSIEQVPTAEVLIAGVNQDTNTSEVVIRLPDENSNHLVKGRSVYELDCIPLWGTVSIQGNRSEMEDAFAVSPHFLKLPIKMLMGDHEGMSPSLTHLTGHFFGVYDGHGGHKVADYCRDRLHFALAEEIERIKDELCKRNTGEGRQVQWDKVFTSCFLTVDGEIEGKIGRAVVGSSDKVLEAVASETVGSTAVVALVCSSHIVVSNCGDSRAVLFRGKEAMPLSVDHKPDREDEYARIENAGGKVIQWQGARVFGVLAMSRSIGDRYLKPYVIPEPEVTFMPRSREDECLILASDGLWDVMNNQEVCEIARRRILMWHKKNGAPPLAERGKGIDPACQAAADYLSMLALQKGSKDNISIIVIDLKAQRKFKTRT
The test can be described thus: Yeast two-hybrid BD-PYR1 / AD-HAB1 interaction, X-gal stain. Type of test: cell-based. To be noted: 10 μM, except epi-brassinolide (50 nM). The method, then: (§1) Given that PYR1 is necessary for pyrabactin action and is a predicted ligand-binding protein, we hypothesized that pyrabactin agonizes ABA signaling by inducing a protein-protein interaction between PYR1 and a downstream effector. To test this, ˜2 million prey cDNA clones were screened against a PYR1 Y2H bait construct on media containing 10 μM pyrabactin. To create the PYR1 Y2H bait construct, the Pyr1 open reading frame was PCR amplified from genomic DNA and cloned to pGem-T easy vector (Promega). After sequence confirmation, the Pyr1 ORF was then cloned in-frame between EcoRI and SalI sites of the pBD-GAL4 Cam vector (Stratagene) and transformed into yeast strain Y190. For the screen, an etiolated seedling cDNA library (J. Kim, K., Harter, A., Theologis, Proc Natl Acad Sci USA 94, 11786 (Oct. 28, 1997)) (ABRC stock CD4-22) was used. The cDNA library was first converted from phage to plasmid DNA, yielding 7.6×10^7 transformants. Plasmid DNA prepared from library was then used to transform Y190 as described in the GAL4 Two-Hybrid system manual (Stratagene). For each screen, 40 μg of prey plasmid was transformed into 1 ml of competent Y190 cell harboring bait construct and then grown on SD agar plates lacking His, Leu, and Trp, but containing 15 mM 3-AT and 10 μM pyrabactin. After 4 days incubation at 30° C., well-grown colonies were rescued and interactions validated using filter lift assay or chloroform-agarose overlay method and X-Gal staining. This identified two pyrabactin-dependent hits which sequencing determined encoded cDNAs for the PP2C HAB1, a close relative of the well-characterized ABA response factor ABI1 (A. Saez et al., The Plant Journal 37, 354 (2004); N. Leonhardt et al., THE PLANT CELL 16, 596 (2004)). Next, Y2H strains expressing an AD-HAB1 fusion protein and a BD-PYR1 fusion protein were grown on plates and tested for interactions in response to various compounds, all at 10 μM except for epi-brassinolide (50 nM) and dimethyl sulfoxide (DMSO) (carrier solvent, 1%). […] Thus, PYR1 interacts with HAB1 in a (+)-ABA dependent fashion.

Another test has as its target T2, PYL4-HAB1 (Arabidopsis thaliana, UniProt O80920).
T2 construct: BD-PYR/PYL fusion proteins were constructed in the same manner as for BD-PYR1 above; expressed in transfected cells; host or cells: yeast (Y190, as for BD-PYR1)
T2 sequence (O80920 1-207): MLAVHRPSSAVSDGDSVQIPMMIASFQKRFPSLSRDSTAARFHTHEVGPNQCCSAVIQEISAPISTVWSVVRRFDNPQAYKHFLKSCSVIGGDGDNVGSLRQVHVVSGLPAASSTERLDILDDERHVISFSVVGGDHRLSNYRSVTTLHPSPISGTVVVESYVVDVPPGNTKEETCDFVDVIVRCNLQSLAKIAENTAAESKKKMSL
T2 sequence (Q9CAJ0 23-511 partner): T1 sequence (Q9CAJ0 23-511 partner)
Kind of test: Yeast two-hybrid BD-PYL4 / AD-HAB1 interaction. Type of test: cell-based. The method, then:
as §1
To see if ABA and pyrabactin responsiveness is unique to PYR1, we tested 11 of the 13 PYL proteins as described above, using Y2H strains expressing an AD-HAB1 fusion protein and a BD-PYR/PYL fusion protein (listed at the left of FIG. 3A). BD-PYR/PYL fusion proteins were constructed in the same manner as for BD-PYR1 above. […] Of these, only Pyr1 is highly transcribed in seeds, which likely explains why mutations in Pyr1 cause the seeds to be insensitive to pyrabactin. […] However the interactions of PYLs 5-12 with the PP2Cs are indicative that the entire protein family is likely to share a similar mechanism of action involving PP2C modulation, as we describe below. […]

Another test has as its target T3, PYL3-HAB1 (Arabidopsis thaliana, UniProt Q9SSM7).
T3 construct: BD-PYR/PYL fusion proteins were constructed in the same manner as for BD-PYR1 above; expressed in transfected cells; host or cells: yeast (Y190, as for BD-PYR1)
T3 sequence (Q9SSM7 1-209): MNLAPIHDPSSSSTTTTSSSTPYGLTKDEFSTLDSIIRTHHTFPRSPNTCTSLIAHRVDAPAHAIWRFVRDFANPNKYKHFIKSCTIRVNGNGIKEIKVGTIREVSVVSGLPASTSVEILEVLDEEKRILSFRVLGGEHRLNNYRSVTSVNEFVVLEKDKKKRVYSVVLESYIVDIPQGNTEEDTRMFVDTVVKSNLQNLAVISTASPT
T3 sequence (Q9CAJ0 23-511 partner): T1 sequence (Q9CAJ0 23-511 partner)
The test can be described thus: Yeast two-hybrid BD-PYL3 / AD-HAB1 interaction. It counts as cell-based. As for the experimental part: as §1
To see if ABA and pyrabactin responsiveness is unique to PYR1, we tested 11 of the 13 PYL proteins as described above, using Y2H strains expressing an AD-HAB1 fusion protein and a BD-PYR/PYL fusion protein (listed at the left of FIG. 3A). BD-PYR/PYL fusion proteins were constructed in the same manner as for BD-PYR1 above. […] Of these, only Pyr1 is highly transcribed in seeds, which likely explains why mutations in Pyr1 cause the seeds to be insensitive to pyrabactin. […] However the interactions of PYLs 5-12 with the PP2Cs are indicative that the entire protein family is likely to share a similar mechanism of action involving PP2C modulation, as we describe below. Thus, we conclude that entire family modulates ABA responses via PP2C interactions.
The yeast strains expressing PYR/PYL receptors and type 2 C protein phosphatases were also used to screen HPLC-fractionated plant extracts for the presence of endogenous compounds that activate PYL/PYL receptors PYR1, PYL2, PYL3, and/or PYL4. HPLC fractionation of extracts was used to identify compounds different from abscisic acid (the known agonist). […] Purification of the agonist was achieved via multiple rounds of chromatographic separation coupled to yeast two hybrid assays that informed the fractions to move forward at each step of the purification. The structure of the purified agonist was deduced by X-ray crystallography of crystalline purified agonist.

In a further test the test system is Arabidopsis seeds. Kind of test: Seed germination inhibition. To be noted: in vivo. Type of test: in vivo. The method, then:
FIG. 1. Pyrabactin is a seed selective ABA agonist. (A) Structures of molecules described in this study. (B) Pyrabactin activity is suppressed by abi1-1. Seeds of the genotype shown at top were imbibed on media containing 25 μM pyrabactin and scored for germination 4 days after stratification. Shown at bottom are IC50 values for pyrabactin's germination effect on the genotypes characterized. (C) Microarray comparison of pyrabactin and ABA treatments in seeds. The Y-axis plots the log2 transformed value for a probe's response to 25 μM pyrabactin (relative to untreated control) and the X-axis a probe's response to 1 μM ABA. […] (D) Microarray comparison of cycloheximide and ABA responses in seeds. […] (E) Microarray comparison of pyrabactin and ABA responses in seedlings. Seven-day old seedlings were transferred to 10 μM ABA or 50 μM pyrabactin containing plates for 24 hours and then mRNA samples profiled. Inset in each scatter plot is the Pearson correlation coefficient for each comparison. Detailed microarray methods are described in the Examples section.
FIG. 2. PYR1 encodes an ABA responsive START-domain protein. (A) Pyr1 alleles. Shown are the allele names, strain names (in parentheses) and amino acid changes caused by the Pyr1 mutant alleles identified by screening for pyrabactin resistant mutations. (B) Pictographic representation of Pyr1 and Pyl1-Pyl4 expression values housed in public microarray databases. The heatmap shown at top right is for the first upper three panels and the bottom heatmap for the guard cell data. Plots were made using the eFP browser (D. Winter et al., PLoS ONE 2, e718 (2007)). (C) 35S::GFP-PYR1 complements pyr1-1. Seeds of the genotypes shown were stratified 4 days on 25 μM pyrabactin and then germinated at RT, 90% RH for 3 days in darkness. […] (D) Pyr/Pyls are required for normal ABA-induced gene expression in seedlings. Shown are qRT-PCR results for the ABA-responsive gene RD29. L, Ler; C, Col; and Q, quadruple mutant. (E) Pyr/Pyl genes are required for normal ABA-induced stress-induced gene expression in seedlings. Shown are qRT-PCR results for two ABA-responsive taqman probes, as described in the Examples section. L=Ler, C=Col, Q=quadruple mutant.
As part of an earlier effort, we identified a germination inhibitor named pyrabactin (Y. Zhao et al., Nat Chem Biol 3, 716 (2007)). […] To test this hypothesis, we examined the pyrabactin sensitivity of mutant lines with altered ABA signaling, biosynthesis or gibberellic acid (GA) perception.
We next performed microarray experiments to evaluate the similarity of the transcriptional responses induced by ABA and pyrabactin treatments. For microarray, tissue was prepared and RNA extracted from Columbia wild type seeds sown on 0.5×MS media (˜2500 seeds per 150 mm plate) containing either 1 μM ABA, 25 μM pyrabactin, 25 μM 2,4-Dinitrophenol (DNP), 1 μM cycloheximide, 2 μM methotrexate or 1% DMSO control plates (all chemicals are dissolved in DMSO). The concentrations utilized for these experiments were normalized for germination inhibition activity by dose curve analyses, i.e. the amount of both compounds required to ensure 100% inhibition of germination when scored 3 days post-imbibition. ABA (±stereoisomers), DNP, cycloheximide and methotrexate were purchased from Sigma Aldrich. Seeds were stratified for 4 days and then incubated in the dark at room temperature for 24 hours. […]

A further test concerns the target T4, PYL2-HAB1 (Arabidopsis thaliana, UniProt O80992).
T4 construct: BD-PYR/PYL fusion proteins were constructed in the same manner as for BD-PYR1 above; expressed in transfected cells; host or cells: yeast (Y190, as for BD-PYR1)
T4 sequence (O80992 1-190): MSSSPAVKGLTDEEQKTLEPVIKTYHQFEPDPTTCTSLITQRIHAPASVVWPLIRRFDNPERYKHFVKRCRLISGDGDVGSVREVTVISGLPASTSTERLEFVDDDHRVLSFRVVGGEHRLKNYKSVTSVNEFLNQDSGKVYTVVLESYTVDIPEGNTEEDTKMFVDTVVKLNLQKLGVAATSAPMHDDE
T4 sequence (Q9CAJ0 23-511 partner): T1 sequence (Q9CAJ0 23-511 partner)
The test can be described thus: Yeast two-hybrid BD-PYL2 / AD-HAB1 interaction, X-gal stain. Type of test: cell-based. To be noted: 10 μM. As for the experimental part: as §1, with “fashion. […]” for “fashion.”

The mark [1] stands for this setting: plant extract screen and related commercial compounds.

`C=C1C[C@]23C[C@@]1(O)CC[C@H]2[C@@]12C=C[C@H](O)[C@@](C)(C(=O)O1)[C@H]2[C@@H]3C(=O)O` [Gibberellic acid]: the “PYR1-HAB1 interaction by X-gal stain” value at PYR1-HAB1 is “neither (−)-ABA, kinetin, 2,4-D, Gibberellic acid (GA), epi-brassinolide (BR), methyl jasmonate (meJA) or apyrabactin showed activity”.

Regarding `C=C(C(=O)O)[C@@H]1CC[C@@H](C)[C@@H]2CCC(C)=C[C@@H]21` [artemisinic acid], on PYL4-HAB1 (setting [1]), the “PYL4 agonist activity in yeast two hybrid assays” value is given as “PYL3/PYL4 selective agonist”. Also, the “PYL3 agonist activity in yeast two hybrid assays” value on PYL3-HAB1 (setting [1]) was “PYL3/PYL4 selective agonist”.

For the compound `O=C(O)COc1ccc(Cl)cc1Cl` [2,4-D], the “PYR1-HAB1 interaction by X-gal stain” value on PYR1-HAB1 is “neither (−)-ABA, kinetin, 2,4-D, Gibberellic acid (GA), epi-brassinolide (BR), methyl jasmonate (meJA) or apyrabactin showed activity”.

As for `O=S(=O)(NCc1ccccc1)c1ccc(Br)c2ccccc12` [apyrabactin], the “PYR1-HAB1 interaction by X-gal stain” value on PYR1-HAB1 is “neither (−)-ABA, kinetin, 2,4-D, Gibberellic acid (GA), epi-brassinolide (BR), methyl jasmonate (meJA) or apyrabactin showed activity”. The effect on germination result with Arabidopsis seeds was “inactive analog”.

On to (−)-ABA, for which the “PYR1-HAB1 interaction by X-gal stain” value at PYR1-HAB1 is listed as “neither (−)-ABA, kinetin, 2,4-D, Gibberellic acid (GA), epi-brassinolide (BR), methyl jasmonate (meJA) or apyrabactin showed activity”. Moreover, the “PYL4-HAB1 interaction by X-gal stain” value at PYL4-HAB1 (10 μM) is “respond”. For the same compound, the “PYL3-HAB1 interaction by X-gal stain” value on PYL3-HAB1 (10 μM) is listed as “respond”. The “PYL2-HAB1 interaction by X-gal stain” value at PYL2-HAB1 is “respond”.

`CC/C=C\CC1C(=O)CCC1CC(=O)OC` (stereo not shown) [methyl jasmonate]: at PYR1-HAB1, the “PYR1-HAB1 interaction by X-gal stain” value is “neither (−)-ABA, kinetin, 2,4-D, Gibberellic acid (GA), epi-brassinolide (BR), methyl jasmonate (meJA) or apyrabactin showed activity”.

Consider `c1coc(CNc2ncnc3[nH]cnc23)c1` [kinetin], for which, at PYR1-HAB1, the “PYR1-HAB1 interaction by X-gal stain” value is “neither (−)-ABA, kinetin, 2,4-D, Gibberellic acid (GA), epi-brassinolide (BR), methyl jasmonate (meJA) or apyrabactin showed activity”.

For the compound `CC(C)[C@@H](C)[C@@H](O)[C@H](O)[C@@H](C)[C@H]1CC[C@H]2[C@@H]3COC(=O)[C@H]4C[C@H](O)[C@H](O)C[C@]4(C)[C@H]3CC[C@]12C` [epi-brassinolide], the “PYR1-HAB1 interaction by X-gal stain” value at PYR1-HAB1 is on record as “neither (−)-ABA, kinetin, 2,4-D, Gibberellic acid (GA), epi-brassinolide (BR), methyl jasmonate (meJA) or apyrabactin showed activity”.
